Several values for one entry are separate records, joined by “and”; a condition that tells them apart may be missing. Equal values may be shown once. Entries after “also recorded” stand apart in the source; their conditions may differ.
Experiments:
[1] = Adverse effects and tolerability of the LG drink; type: in vivo, human
Excerpt: A total of 11 adverse events were reported by 6 subjects for the entire duration of the study (data not shown). Some of these events such as volunteer hurting their back or hand were definitely unrelated to the drinks, while others like a weird taste, dry throat seem related to the drinks, still others such as mild cold or frequent urinating, or rash on chest may or may not be related to the drinks. […] Since the placebo was also the carrier of LG, all adverse events may be due to the placebo drinks.

[2] = test system: gamma glutamyl transferase (GGT); test: Plasma GGT activity (Integra 400); type: in vivo, human; conditions: 56 days
Procedure: (§1) CMP performed on serum samples at the chemistry laboratory of University of California Medical Center by using the Beckman Coulter DxC800. GGT and CKMB were determined in the EDTA plasma. GGT activity was determined by using Integra 400 Chemistry Analyzer, Roche Diagnostics. CKMB concentration was determined by using the Multiplex kits from Mesoscale Discovery (Gaithersburg, Md. 20877).
(§2) SAS PROC MIXED was used to fit the cross-over model (Littell R C, Milliken G A, Stroup W W, Wolfinger R D, Schabenberger O. SAS System for Mixed Models. Cay, N.C.: SAS Institute Inc.; 2006). Transformations were used when appropriate to stabilize the variances among the diets and periods. The fixed effects were order, diet, the interaction and the covariate; and the random effect was subjects within order. The test for order is a test for carry-over effect. […] Comparisons were made between the values at the end of placebo and LG treatments and using the baseline data as a covariate. Results are presented as means±SEM. Differences were considered statistically significant for P value<0.05.

[3] = test system: alanine amino transferase (ALT); test: Serum alanine amino transferase (CMP); type: in vivo, human; conditions: 500 mg/d, 56 days
Procedure: as §1, §2

[4] = test system: peripheral blood mononuclear cells (PBMNC); test: Ex-vivo production of cytokines by PBMNC; type: in vivo, human
Procedure: Peripheral blood mononuclear cells (PBMNC) were isolated by using Dulbecco's phosphate buffered saline (DPBS) and suspended in Russ's-10 medium containing 10% autologous sera at concentrations of 1 million/mL. PBMNC were cultured in Costar 96-well sterile flat bottom plates coated with mouse anti-human CD3 and CD28 to stimulate T cells. Another set of wells were stimulated with LPS (final concentration 10 ng/mL) to stimulate monocytes. Cell culture supernatants were collected at 24, 48, and 72 hr after stimulation by centrifugation. Cell culture supernatants were stored at −80° C. until tested for cytokine concentrations. All cytokines were analyzed on a BioPlex instrument (BioRad Laboratories, Richmond, Calif.) with multiplex reagents kits (Millipore Corp., Danvers, Mass.).
(§3) Results are presented as means±SEM.

[5] = test system: alkaline phosphatase (ALP); conditions: 500 mg/d, 56 days
Procedure: as §1, §2

[6] = test system: creatinine kinase MB (CKMB); test: Plasma CKMB concentration (Mesoscale multiplex); type: in vivo, human; conditions: EDTA plasma; End LG, 500 mg/d, 56 days, n = 10, mean ± SEM
Procedure: as §1, §2

[7] = Serum/plasma concentrations of inflammatory markers; type: in vivo, human
Procedure: Plasma concentrations of epidermal growth factor (EGF), interleukin-13 (IL-13), interleukin-1 receptor antagonist (IL-1Ra), and tumor necrosis factor α (TNF α) were analyzed in EDTA plasma on a Sector Imager 2400 instrument using a multiplex kits from MSD (Meso-Scale Discovery, Gaithersburg, Md.). Concentrations of C reactive protein (CRP), and complement 3 and 4 (C3, C4) were analyzed in serum by using an Integra 400 Plus Chemistry Analyzer, (Roche Diagnostics Corp., Indianapolis, Ind.). Serum amyloid A (SAA), soluble intracellular adhesion molecule-1 (sICAM-1), and soluble vascular cell adhesion molecule-1 (sVCAM-1) were tested in serum on a Sector Imager 2400 instrument using a multiplex kit from MSD (Meso-Scale Discovery, Gaithersburg, Md.).
as §3

[8] = test system: prostate specific antigen (PSA); test: Plasma free prostate specific antigen in MAP 1.6; type: in vivo, human; conditions: for decrease of plasma free PSA concentration: vs placebo, n=5
Procedure: Plasma samples prepared from blood collected in EDTA-containing tubes were stored at −80° C. until tested. The samples were thawed at room temperature, vortexed, spun at 13,000×g for 5 minutes for clarification and 100 uL aliquots were removed for MAP analysis into a master microtiter plate. Using automated pipetting, an aliquot of each sample was introduced into one of the capture microsphere multiplexes of the Human MAP 1.6. This MAP comprised of 89 antigens that included markers for oxidative stress, inflammation, immune status, T2DM, CVD, blood clotting, cancer, liver and kidney functions. All plasma samples were tested in duplicate. The mixture of sample and capture microspheres were thoroughly mixed and incubated at room temperature for 1 hour. Multiplexed cocktails of biotinylated, reporter antibodies for each multiplex were then added robotically and after thorough mixing, were incubated for an additional hour at room temperature. Multiplexes were developed using an excess of streptavidin-phycoerythrin solution which was thoroughly mixed into each multiplex and incubated for 1 hour at room temperature. The volume of each multiplexed reaction was reduced by vacuum filtration and the volume increased by dilution into matrix buffer for analysis. Analysis was performed in a Luminex 100 instrument and the resulting data stream was interpreted using proprietary data analysis software developed at Rules-Based Medicine. For each multiplex, both calibrators and controls were included on each microtiter plate. 8-point calibrators were run in the first and last column of each plate and 3-level controls were included in duplicate. Testing results were determined first for the high, medium and low controls for each multiplex to ensure proper assay performance. Unknown values for each of the analytes localized in a specific multiplex were determined using 4 and 5 parameter, weighted and non-weighted curve fitting algorithms included in the data analysis package. The intra-sample coefficient of variance (CV) for all antigens with concentrations above the lowest detectable dose (LDD) was less than 20%, and was less than 10% for more than 50% of the antigens tested.
as §3

[9] = serum, End LG, n = 10, mean ± SEM
[10] = cells stimulated with CD3/28 (each 0.75 μg/mL, 72 hr), End LG, 500 mg/d, 56 days, n = 10, mean ± SEM
[11] = cells stimulated with LPS (10 ng/mL, 24 hr), End LG, 500 mg/d, 56 days, n = 10, mean ± SEM
[12] = EDTA plasma, End LG, 500 mg/d, 56 days, n = 10, mean ± SEM
[13] = serum, End LG, 500 mg/d, 56 days, n = 10, mean ± SEM

With `CC1(C)O[C@H]2CC(=O)OC[C@]23[C@H]2CC[C@@](C)([C@@H](O[C@@H]4O[C@H](CO)[C@@H](O)[C@H](O)[C@H]4O)c4ccoc4)[C@@]4(O[C@@H]4C(=O)O)[C@]2(C)C(=O)C[C@@H]13` [LG, limonin glucoside] the “effect on parameters of CBC, CMP and MAP 1.6” value ([1]; 500 mg/d, 56 days) was “did not adversely affect”, the serious adverse effects ([1]; 500 mg/d, 56 days) was “did not have any serious adverse effects” and the tolerability ([1]; 500 mg/d, 56 days) was “well tolerated”. For the same molecule, the “adverse events reported while taking the drink” value ([1]; out of the 11 adverse events of the study, 7 on placebo drinks) was 4, the GGT ([2]; EDTA plasma, End LG, 500 mg/d, n = 10, mean ± SEM) was 25.2 ± 8.0 U/L and the “decrease of plasma activity of GGT” value ([2]; vs end of placebo treatment, 0.5 g/d, p=0.001) was 33.8% and 33%. For the same molecule, the Alanine amino trasferase [3, 9] was 25.2 ± 5.08 U/L, the “decrease of serum alanine aminotransferase (ALT) activity” value ([3]; vs end of placebo treatment, p=0.041) was 13.1% and the “ex-vivo secretion of cytokines by stimulated T cells and monocytes” value ([4]; LG vs placebo treatment) was “did not differ; also recorded: trend for decrease”. The IL-2 [4, 10] was 58.8 ± 25.8 pg/mL, the IL-4 [4, 10] was 66.7 ± 12.8 pg/mL and the IL-10 [4, 10] was 779 ± 126 pg/mL. The “Interferon γ” value [4, 10] was 51700 ± 10536 pg/mL, the “TNF α” value [4, 10] was 6723 ± 970 pg/mL and the IL-1β [4, 11] was 4731 ± 1123 pg/mL. For the same molecule, the IL-6 [4, 11] was 10926 ± 1586 pg/mL, the “TNF α” value [4, 11] was 1354 ± 231 pg/mL and the “concentrations of all secreted cytokines except IL-10 lower than after placebo” value ([4]; ex vivo, CD3/28 or LPS stimulated PBMNC, not significant) was 8-18%. For the same molecule, the Alkaline phosphatase [5, 9] was 59.5 ± 3.47 U/L, the “decrease of serum alkaline phosphatase (ALP) activity” value ([5]; vs end of placebo treatment, p=0.025) was 10.1% and the CKMB [6] was 2.60 ± 0.50 ng/mL. For the same molecule, the EGF [7, 12] was 106.02 ± 52.55 pg/mL, the IL-1Ra [7, 12] was 194.93 ± 27.03 pg/mL and the IL-13 [7, 12] was 2.42 ± 0.27 pg/mL. For the same molecule, the TNF a [7, 12] was 0.58 ± 0.20 pg/mL, the C4 [7, 13] was 0.29 ± 0.02 mg/mL and the CRP [7, 13] was 1.64 ± 0.25 µg/mL. The SAA [7, 13] was 4.06 ± 0.77 µg/mL, the sICAM-1 [7, 13] was 0.25 ± 0.02 µg/mL and the sVCAM-1 [7, 13] was 0.41 ± 0.04 µg/mL. For the same molecule, the “effect on plasma EGF, IL-13, IL-1Ra, TNF α and serum CRP, SAA, sICAM-1, sVCAM-1, C4” value ([7]; vs end of placebo treatment) was “not altered”, the “subjects in whom free PSA concentration was reduced” value ([8]; 5 men, 5 women) was “all men and 3 women” and the “Prostate-Specific Antigen, Free” value ([8]; plasma, MAP 1.6, End LG, 500 mg/d, 56 days, n = 10, mean ± SEM) was 0.31 ± 0.11 ng/mL. The “decrease of plasma free PSA concentration” value ([8]; men, p=0.059) was 14.5% and the “decrease of plasma free PSA concentration” value ([8]; women, p=0.309) was 22.9%.
